From paper PMC12207590, “Substrate Specificity of the Organic Cation Transporters MATE1 and MATE2K and Functional Overlap with OCT1 and OCT2” (Journal of Medicinal Chemistry, 2025)
Where two headings read alike, the source gives them in different places.

Key:
MATE2K [1] = molecular target: T1, MATE2K (Homo sapiens, UniProt Q86VL8); assay: Concentration-dependent uptake (Michaelis-Menten) via MATE2K in HEK293 cells; settings: HEK293, 1 min, net uptake; for Km: read-out: MATE2K KM
[2] = human; cited from earlier work
MATE1 [3] = molecular target: T2, MATE1 (Homo sapiens, UniProt Q96FL8); assay: Concentration-dependent uptake (Michaelis-Menten) via MATE1 in HEK293 cells
T2 sequence (Q96FL8 1-570): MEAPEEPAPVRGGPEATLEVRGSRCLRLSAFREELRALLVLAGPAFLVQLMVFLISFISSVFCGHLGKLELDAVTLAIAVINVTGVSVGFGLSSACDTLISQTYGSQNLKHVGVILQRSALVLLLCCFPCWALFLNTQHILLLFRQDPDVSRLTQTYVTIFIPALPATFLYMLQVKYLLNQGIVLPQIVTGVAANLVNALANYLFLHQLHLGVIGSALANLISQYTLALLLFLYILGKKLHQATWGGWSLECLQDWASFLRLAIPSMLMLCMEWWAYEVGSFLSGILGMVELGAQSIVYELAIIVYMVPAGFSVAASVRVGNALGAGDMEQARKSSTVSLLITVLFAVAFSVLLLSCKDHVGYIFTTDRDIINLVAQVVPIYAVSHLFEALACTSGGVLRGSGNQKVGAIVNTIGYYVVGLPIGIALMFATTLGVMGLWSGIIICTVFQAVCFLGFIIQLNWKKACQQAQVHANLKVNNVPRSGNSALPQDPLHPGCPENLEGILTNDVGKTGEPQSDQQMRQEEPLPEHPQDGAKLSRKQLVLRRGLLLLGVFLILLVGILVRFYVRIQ

hCMEC [4] = assay: TS DPH hCMEC (Table S2); type: cell-based, human; design: scale not given here; settings: Table S2
hCMEC [5] = assay: TS MDAI hCMEC (Table S2); type: cell-based, human; design: scale not given here; settings: Table S2
MATE1 [6] = molecular target: T2, MATE1; assay: Uptake ratio in MATE1-overexpressing HEK293 cells vs empty vector (2.5 μM, 1 min, HPLC-MS/MS); type: cell-based; design: key to MATE1 substrate*: 1 = substrate; 0 = no substrate; settings: for MATE1 (uptake ratio): mean ratio of uptake in MATE1-overexpressing HEK293 cells vs empty vector; for MATE1 substrate*: Table S4; for MATE1: uptake ratio MATE1-overexpressing vs empty-vector HEK293 cells, mean
MATE2K [7] = molecular target: T1, MATE2K; assay: Uptake ratio in MATE2K-overexpressing HEK293 cells vs empty vector (2.5 μM, 1 min, HPLC-MS/MS); type: cell-based; design: key to MATE2 substrate*: 1 = substrate; 0 = no substrate; settings: for MATE2 (uptake ratio): mean ratio of uptake in MATE2K-overexpressing HEK293 cells vs empty vector; for MATE2 substrate*: Table S4; for MATE2: uptake ratio MATE2K-overexpressing vs empty-vector HEK293 cells, mean
renal MATE1 = settings: 800 mg cimetidine; cited from earlier work
MATE1 [8] = molecular target: T2, MATE1; assay: in vitro; settings: other cell line, pH 7.4
MATE1 [9] = molecular target: T2, MATE1; settings: for MATE1 Clint: human, pH 7.4
MATE2K [10] = molecular target: T1, MATE2K; assay: in vitro; settings: other cell line, pH 7.4
[11] = tested on: MATE1, MATE2K, OCT1, OCT2; assay: Substrate specificity and overlap among the four transporters (ratio cutoff 2); type: cell-based, human; settings: transport ratio cutoff of 2
OCT2 = molecular target: T3, OCT2 (Homo sapiens, UniProt O15244); assay: Uptake in OCT2-overexpressing HEK293 cells (substrate yes/no); type: cell-based; design: key: 1 = substrate; 0 = no substrate; settings: Table S4
T3 sequence (O15244 1-555): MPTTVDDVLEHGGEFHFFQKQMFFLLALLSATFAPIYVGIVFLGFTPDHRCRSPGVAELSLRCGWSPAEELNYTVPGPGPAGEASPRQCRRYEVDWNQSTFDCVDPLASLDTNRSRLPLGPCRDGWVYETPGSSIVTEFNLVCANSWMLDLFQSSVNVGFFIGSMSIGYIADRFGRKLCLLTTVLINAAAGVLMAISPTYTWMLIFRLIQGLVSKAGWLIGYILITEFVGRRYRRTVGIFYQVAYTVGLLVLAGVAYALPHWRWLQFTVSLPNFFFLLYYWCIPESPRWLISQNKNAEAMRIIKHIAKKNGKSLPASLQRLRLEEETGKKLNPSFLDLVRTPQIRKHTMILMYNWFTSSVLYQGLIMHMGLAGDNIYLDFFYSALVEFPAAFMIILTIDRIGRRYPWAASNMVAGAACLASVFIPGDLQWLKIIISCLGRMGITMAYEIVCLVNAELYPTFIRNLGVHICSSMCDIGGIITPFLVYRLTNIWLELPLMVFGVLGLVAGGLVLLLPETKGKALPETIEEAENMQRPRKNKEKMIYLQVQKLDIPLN
Method: (§1) The cell lines were generated using the recombinant site-specific Flp-In^TM system as previously described. , All cell lines used in the transport experiments were cultured at 37 °C and 5% CO2 with Dulbecco’s Modified Eagle’s Medium (DMEM) supplemented with 10% (v/v) FBS and the antibiotics penicillin (100 U/mL) and streptomycin (100 μg/mL).

OCT1 = molecular target: T4, OCT1 (Homo sapiens, UniProt O15245); assay: Uptake in OCT1-overexpressing HEK293 cells (substrate yes/no); type: cell-based; design: key: 1 = substrate; 0 = no substrate; settings: Table S4
T4 sequence (O15245 1-554): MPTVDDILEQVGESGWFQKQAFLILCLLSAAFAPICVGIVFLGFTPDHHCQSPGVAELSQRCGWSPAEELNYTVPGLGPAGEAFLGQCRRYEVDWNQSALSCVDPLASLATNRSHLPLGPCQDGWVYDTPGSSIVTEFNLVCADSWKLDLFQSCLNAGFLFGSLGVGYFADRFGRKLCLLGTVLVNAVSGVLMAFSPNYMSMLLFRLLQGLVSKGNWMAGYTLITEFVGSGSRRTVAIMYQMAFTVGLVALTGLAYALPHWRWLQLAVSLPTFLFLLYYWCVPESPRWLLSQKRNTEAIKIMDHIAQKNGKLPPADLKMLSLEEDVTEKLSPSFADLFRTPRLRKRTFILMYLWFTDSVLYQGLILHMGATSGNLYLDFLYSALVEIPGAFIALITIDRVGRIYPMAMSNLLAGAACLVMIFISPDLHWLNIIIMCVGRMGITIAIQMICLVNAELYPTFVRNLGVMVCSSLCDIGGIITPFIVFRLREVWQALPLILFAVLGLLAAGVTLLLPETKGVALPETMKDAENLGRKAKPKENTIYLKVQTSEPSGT
Method: as §1

[12] = fold uptake over empty vector, 2.5 μM, 1 min

T1 sequence (Q86VL8 1-566 isoform Q86VL8-3): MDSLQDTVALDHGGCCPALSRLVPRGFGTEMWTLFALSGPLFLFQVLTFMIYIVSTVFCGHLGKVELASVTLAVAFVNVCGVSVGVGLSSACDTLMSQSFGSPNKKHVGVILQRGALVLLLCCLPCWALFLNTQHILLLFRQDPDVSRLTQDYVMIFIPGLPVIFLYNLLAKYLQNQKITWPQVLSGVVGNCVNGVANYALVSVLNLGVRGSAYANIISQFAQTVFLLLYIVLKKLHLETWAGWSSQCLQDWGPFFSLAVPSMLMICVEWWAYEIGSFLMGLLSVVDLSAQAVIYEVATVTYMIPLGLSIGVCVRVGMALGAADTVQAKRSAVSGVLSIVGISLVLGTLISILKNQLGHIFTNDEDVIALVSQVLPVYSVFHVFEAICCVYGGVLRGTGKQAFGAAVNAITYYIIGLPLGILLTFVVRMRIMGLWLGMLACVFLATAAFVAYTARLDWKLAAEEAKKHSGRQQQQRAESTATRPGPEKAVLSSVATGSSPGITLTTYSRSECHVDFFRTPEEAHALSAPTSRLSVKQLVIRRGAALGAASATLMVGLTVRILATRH

| MATE1 Vmax (MATE1 [3]; HEK293, 1 min, net uptake) | OCT2 substrate* (OCT2) | MATE1 substrate* (MATE1 [6]) | MATE1 (MATE1 [6]; 2.5 μM, 1 min) | MATE2 substrate* (MATE2K [7]) | MATE2 (MATE2K [7]; 2.5 μM, 1 min) | OCT1 substrate* (OCT1) | SMILES | MATE2K Vmax (MATE2K [1]) | Km (MATE2K [1]) | other results |
| --- | --- | --- | --- | --- | --- | --- | --- | --- | --- | --- |
| – | 0 | 0 | 1.2 | 0 | 1.25 | 0 | O=C1Cc2cc(CCN3CCN(c4nsc5ccccc45)CC3)c(Cl)cc2N1 [Ziprasidone] | – | – | – |
| 2624 pmol × mg protein^–1 × min^–1 | 1 | 1 | 12.88 | 1 | 6.48 | 1 | CN(C)CCc1c[nH]c2ccc(C[C@H]3COC(=O)N3)cc12 [Zolmitriptan (R), Zolmitriptan] | – | – | – |
| 2849 pmol × mg protein^–1 × min^–1 | 0 | 1 | 13.34 | 1 | 5.38 | 1 | CN(C)CCc1c[nH]c2ccc(C[C@H]3COC(=O)N3)cc12 [Zolmitriptan (S), Zolmitriptan] | 1662 pmol × mg protein^–1 × min^–1 | 94.5 µM | – |
| 2992 pmol × mg protein^–1 × min^–1 | 0 | 1 | 11.83 | 1 | 5.51 | 1 | CN(C)CCc1c[nH]c2ccc(C[C@H]3COC(=O)N3)cc12 [Zolmitriptan] | – | – | – |
| – | – | 0 | 0.51 | 0 | 1.34 | 0 | CN(C)CCOC1=Cc2ccccc2Sc2ccc(Cl)cc21 [Zotepin] | – | – | – |

The next lines start with the compound.

| SMILES | MATE1 Vmax (MATE1 [3]; HEK293, 1 min, net uptake) | OCT2 substrate* (OCT2) | MATE1 substrate* (MATE1 [6]) | MATE1 (MATE1 [6]; 2.5 μM, 1 min) | MATE2 substrate* (MATE2K [7]) | MATE2 (MATE2K [7]; 2.5 μM, 1 min) | OCT1 substrate* (OCT1) | MATE2K Vmax (MATE2K [1]) | Km (MATE2K [1]) | other results |
| --- | --- | --- | --- | --- | --- | --- | --- | --- | --- | --- |
| CCN1CCCC1CNC(=O)c1cc(S(=O)(=O)CC)c(N)cc1OC (stereo not drawn) [Amisulpride] | 238 pmol × mg protein^–1 × min^–1 | – | – | – | – | – | – | 710 pmol × mg protein^–1 × min^–1 | 39.9 µM | eliminated unchanged via the kidneys [2]: more than 70%; Km (MATE1 [3]; read-out: MATE1 KM, HEK293, 1 min, net uptake): 10.6 µM; TS DPH hCMEC (hCMEC [4]): 0.89; TS MDAI hCMEC (hCMEC [5]): 0.91; MATE1 ratio (MATE1 [6]; [12]): 11.04; MATE1 ratio (MATE1 [6]; fold uptake over empty vector, 2.5 μM, 1 min, listed as amisulpride): above 2; MATE1 (uptake ratio) (MATE1 [6]; 2.5 μM, 1 min): 11.04; MATE2K ratio (MATE2K [7]; [12]): 11.15; MATE2 (uptake ratio) (MATE2K [7]; 2.5 μM, 1 min): 11.15 |
| CN/C(=N\CCSCc1nc[nH]c1C)NC#N [Cimetidine] | – | – | – | – | – | – | – | – | – | inhibition of metformin elimination (renal MATE1): approximately 43%; eliminated unchanged via the kidneys [2]: more than 70%; MATE1 ratio in this study (MATE1 [6]; Table S1, 2.5 μM, 1 min): 11.52; MATE1 ratio (MATE1 [6]; [12]): 11.52; MATE1 ratio (MATE1 [6]; fold uptake over empty vector, 2.5 μM, 1 min, listed as cimetidine): above 2; MATE1 (uptake ratio) (MATE1 [6]; 2.5 μM, 1 min): 11.52; MATE2K ratio in this study (MATE2K [7]; Table S1, 2.5 μM, 1 min): 3.60; MATE2K ratio (MATE2K [7]; [12]): 3.60; MATE2 (uptake ratio) (MATE2K [7]; 2.5 μM, 1 min): 3.6 |
| c1c2c(cc3c1OCO3)-c1cc3ccc4c(c3c[n+]1CC2)OCO4 [Coptisine] | – | – | – | – | – | – | – | 246 pmol × mg protein^–1 × min^–1 | 1.88 µM | microsomal CLint (MATE1 [8]): 145 µL/min/mg; Km (MATE1 [9]): 20 µM; MATE1 Clint (MATE1 [9]): 145 μL × mg protein^–1 × min^–1; microsomal CLint (MATE2K [10]): 131 µL/min/mg; MATE1 Vmax (MATE1 [3]): 2901 pmol × mg protein^–1 × min^–1; MATE1 ratio (MATE1 [6]): 9.90; MATE2K ratio (MATE2K [7]): 6.48 |
| CN(C)C(=O)Oc1cccc([N+](C)(C)C)c1 [Neostigmine] | – | – | – | – | – | – | – | 3139 pmol × mg protein^–1 × min^–1 | 385 µM | Substrate specificity among MATE1, MATE2K, OCT1, OCT2 [11]: All four transporters; Km (MATE1 [9]): 160 µM; MATE1 Clint (MATE1 [9]): 45.2 μL × mg protein^–1 × min^–1; MATE1 Vmax (MATE1 [3]): 7255 pmol × mg protein^–1 × min^–1; MATE1 ratio (MATE1 [6]): 32.31; MATE2K ratio (MATE2K [7]): 5.31 |
